Reference: paper PMC4912613, “A broad analysis of resistance development in the malaria parasite” (Nature Communications, 2016)
Where two headings read alike, the source gives them in different places.

How the values were obtained:
[1] = tested on: P. berghei exoerythrocytic forms; test: Liver-stage P. berghei hepatocyte invasion and development assay (luminescence, HepG2); format: cell-based, Plasmodium berghei; details: for EC50 fold shift compared to asexual stage: Liver Stage EC50: liver stage EC50 / 3D7 EC50
Excerpt: (§1) As drugs that eliminate multiple stages of the parasite lifecycle will be critical components in global efforts to eliminate malaria, we were interested in knowing whether the compounds in our study had additional activities against either the liver and/or transmission stages of the parasite lifecycle. To determine this, we first evaluated the compounds in additional phenotypic assays. The first assay was a P. berghei hepatocyte invasion and development assay, which predicts causal prophylactic activity. Hepatocyte toxicity was additionally tested to identify false-positive activity in the liver stage due to host-cell toxicity. Assays were executed in duplicate using a 12-point EC50 curve at starting concentrations of 5 μM or 50 μM (Supplementary Table 1).
(§2) Liver-stage activity was determined by pretreating hepatic human cells (HepG2) for 2 h with compound in 1,536-well plates infected with freshly dissected P. berghei sporozoites. After 48 h of incubation, the viability of P. berghei exoerythrocytic forms was measured by luminescence reaction light output using BrightGlo (Promega). Varying levels of compound concentration were used (5 μM or 50 μM) due to the stock concentration supplied.

HepG2 = test: Hepatocyte toxicity; format: cell-based, human; details: for Hepatocyte Toxicity: HepG2; for EC50 fold shift compared to asexual stage: Hepatocyte Toxicity: hepatocyte toxicity / 3D7 EC50; for Liver Stage / Hepatocyte Toxicity: toxicity fold shift for the liver stage (hepatocyte toxicity vs liver stage EC50)
Excerpt: as §1, §2

[2] = tested on: ATQ-R4 (cytb M133I and L144S, parent 3D7); test: Cross-resistance EC50 assay, ATQ-R4; format: cell-based, Plasmodium falciparum; details: for EC50: Plasmodium falciparum, 3D7, SYBR green 72 hour assay, asynchronized parasites, 96-well or 1536-well format, ATQ-R4
Excerpt: (§3) To evaluate potential overlapping activity against known antimalarial drug targets, we performed dose-response studies with each compound against our assembled set of drug-resistant lines and their corresponding parents, in an asexual blood stage proliferation assay (Table 1). Comparisons were made to the drug-sensitive strain 3D7 when a parent was unavailable (TM90C2A, W2 and Dd2). As laboratories conducted EC50 assays with different strains and protocols, all comparisons were made between assays from the same laboratory and under the same assay conditions. Compounds displaying >5-fold EC50 shifts relative to the parent or sensitive strain were flagged as having potentially non-novel targets. Average fold shifts per strain ranged from 0.82 to 2.34, with a median of 1.23 indicating there was not common resistance to any one resistant clone. No resistance patterns were observed when classifying the compounds based on chemical structure, but this was not surprising given the diversity of compounds chosen. On the other hand, given that these confirmed compounds were derived from larger unconfirmed hit lists to which some filtration criteria may have been applied (for example, elimination of obvious dihydrofolate reductase inhibitors[32]), some[10][11][12][13] pre-existing bias may exist in the set. […]
(§4) Alternatively, a SYBR Green-based proliferation approach was used for the 72-h assay, as previously described. Briefly, a culture of either synchronized or asynchronous parasitized RBCs (0.3% parasitemia and 4% haematocrit) in screening medium (identical to supplemented medium above except no serum was added) was exposed to serial drug dilutions. Plates were incubated at 37 °C and gassed with 93% N2, 4% CO2 and 3% O2 for 72 h. Following incubation, 10 × SYBR Green I (Invitrogen; supplied in 10,000 × concentration) in lysis buffer ([…], 5 mM EDTA, 0.16% Saponin wt per vol and 1.6% Triton X vol per vol) was added to the wells and the plates were incubated overnight at room temperature before plate reading. EC50 assays were repeated three times, taking the average EC50 value from each assay set, and removing any outliers using a single iteration of Grubbs' test, eliminating values with z-scores above the critical z-value (α=0.05). The raw EC50 values for synchronized parasites assayed in a 384-well format are listed in Supplementary Data 4. The raw EC50 values for asynchronous parasites assayed in a 96 or 1536-well format are listed in Supplementary Data 5.
(§5) EC50 values for each strain were compared with those of the corresponding parent strain to determine fold-shift changes and identify resistance. To minimize the cause variance between assays, all comparisons were conducted between strains assayed under identical conditions. A one-way ANOVA followed by a Dunnet's post-test was conducted in GraphPad Prism to identify significant changes between the parent and resistant strain.

hsp90 (D88Y, parent Dd2) = test: Cross-resistance EC50 assay, hsp90; format: cell-based; details: Plasmodium falciparum; SYBR green 72 hour assay; synchronized parasites; 384-well format; strain HSP90 (Dd2 parent)
Excerpt: as §3, §4, §5

[3] = Plasmodium berghei, HepG2, 48 h, P. berghei sporozoites, HepG2, 48 h, read-out: Liver Stage EC50

Structure (SMILES)	EC50 ([1]; P. berghei sporozoites, HepG2, 48 h, read-out: Liver Stage EC50) [nM]	EC50 [1, 3] [nM]	EC50 fold shift compared to asexual stage: Liver Stage EC50 [1]	Hepatocyte Toxicity (HepG2) [µM]	EC50 fold shift compared to asexual stage: Hepatocyte Toxicity (HepG2)	Liver Stage / Hepatocyte Toxicity (HepG2)	EC50 [2] [µM]	EC50 fold-shift, ATQ-R4 vs parent ([2]; resistance, parent 3D7) [×]	EC50 (hsp90 (D88Y, parent Dd2)) [nM]	EC50 ([1]; Plasmodium berghei, HepG2, 48 h, read-out: Liver Stage EC50) [nM]	EC50 ([1]; Plasmodium berghei, HepG2, text values, read-out: Liver stage EC50 (PfLuc EC50)) [nM]
COc1ccccc1CNC(=O)CCn1c(=O)[nH]c2ccsc2c1=O [MMV019066]	310	318	0.19	> 5	> 3	> 15	0.057	16	15		
Cl.c1ccc2c(NCCCCCCNc3c4c(nc5ccccc35)CCCC4)c3c(nc2c1)CCCC3 [MMV019555]				4.811		15.06	0.08		198	319	
COc1ccc(N2CCN(C(CNC(=O)C3CCCCC3)c3ccc4c(c3)OCO4)CC2)cc1 (centres unmarked) [MMV019662]		18900	55.47	> 50	> 147	> 2.65	0.716		790		
COc1ccc(-c2nc(NC(=O)Cc3ccc4c(c3)OCCO4)sc2C)cc1 [MMV019719]		10500	63.78	20.33	123.96	1.94	0.203		281		
Cc1ccc(Oc2ncccc2C(=O)Cc2cccc3cccnc23)c(C)c1 [MMV020746]		12100	159.34	31.56	415.26	2.61	1.97		200		
COc1cc(-c2nc(-c3ccccc3)c(-c3ccccc3)[nH]2)cc(OC)c1O [MMV020750]		> 5000	23.86	> 5	> 15	> 1	0.912		700		
CCCCCCCN(Cc1ccc(OC(C)(C)C(=O)OCC)cc1)C(=O)Nc1ccc(Cl)cc1OCC [MMV021735]		2690	7.03	> 50	> 130	> 18	0.056		275		
CN(C)Cc1ccc(-c2cc3c(-c4ccc(CN(C)C)cc4)ccnc3[nH]2)cc1.O=C(O)C(F)(F)F [MMV022224]		801		2.32		2.90	0.372		346		
Nc1ncc(-c2cn[nH]c2)cc1-c1nc2ccc(F)cc2[nH]1 [MMV023367]		611	2.02	4.228	14.00	6.92	1.67		491		
CN(C)S(=O)(=O)c1cc(-c2ccc3nccc(-c4cccc(S(N)(=O)=O)c4)c3c2)cnc1N [MMV024038]		10.8	0.05	0.1461	0.64	13.52	1.16		128		10
Cc1ccc(S(=O)(=O)n2cc(-c3ccnc(N)c3)c3cc(Br)cnc32)cc1 [MMV024114]		5940	22.40	9.39	35.43	1.58	1.99		831		
CNCc1ccc2nc(-c3coc(Cc4cc(Cl)ccc4OCC(C)C)n3)[nH]c2c1.Cl.Cl [MMV026596]		6470	18.71	13.42	38.79	2.07	0.303		373		
COc1cc(-c2nc(-c3ccccc3)c(-c3ccccc3)[nH]2)ccc1OCCN(C)C [MMV027496]		3170	28.59	13.49	121.53	4.25	0.305		312		
Cc1nc2ccc3ccc(CNc4ccc(C(=O)CC(CCC(=O)O)C(=O)O)cc4)cc3c2c(=O)[nH]1.Cl (centres unmarked) [MMV027634]		> 50000	> 2170	11.61	504.78		0.194		39		
CC(C)c1cccc(C(NC(=O)C2Cc3ccccc3CN2C(=O)c2cccc(N3CCOCC3)c2)C2CCCC2)c1 (centres unmarked) [MMV028038]		5360	9.92	19.24	35.63	3.59	1.01		432		
O=C(NCC(CCCN1CCC(c2c[nH]c3ccccc23)CC1)c1ccccc1)Nc1ccc(Cl)c(Cl)c1 (centres unmarked) [MMV029272]		1800	13.22	5.366	39.46	2.98	9.56		710		
